Experimental data reported in patent publication US6410790B1, “3-amin3-arylpropan-1-ol compounds, their preparation and use” (priority 1999, dated 2002).

What was measured:
[1] = test system: binding site 2 of the sodium channel; assay: BTX binding, sodium channel; conditions: 10 μM, percentage inhibition, [3H]-batrachotoxin A20 α-benzoate 10 nM, rat cerebral cortex synaptosomes
Experimental: Binding Investigations in the Sodium Channel
Binding Site 2 (BTX Binding)
The binding site 2 of the sodium channel is the so-called batrachotoxin (BTX) binding site. [^3H]-batrachlotoxin A20 α-benzoate (10 nM in the assay) was used as ligand. These ion channel particles (synaptosomes) were concentrated from rat cerebral cortex according to the procedure of Gray and Whittaker (E. G. Gray and V. P. Whittaker (1962) J. Anat. 76, 79-88). The radioactivity that is measured in the presence of veratridine (0.3 mM in the assay) is defined as non-specific binding. The material was incubated at 37° C. for 120 minutes. The assay conditions are carried out according to the protocol published by Pauwels, Leysen and Laduron (P. J. Pauwels, J. E. Leysen and P. M. Laduron (1986) Eur. J. Pharmacol. 124, 291-298).
(N=3, i.e. mean values±SEM from 3 independent series of experiments that were carried out in the form of triple parallel experiments).
(§1) For this purpose IC50 values are obtained, which can be converted to inhibitor constants (Ki) according to the “Cheng-Prusoff equation” (Y. C. Clieng and W. H. Prusoff (1973) Biochem. Pharmacol. 22, 3099-3108). The IC50 values were obtained by means of the computer program “Figure P” (version 6.0, Biosoft, Cambridge, England). Km values were calculated according to Lineweaver and Burk (H. Lineweaver and D. Burk (1934) J. Am. Chem. Soc. 56, 658-666). The “Ligand” computer program (version 4, Biosoft, England) was used to obtain Ken values.

[2] = test system: phenylquinone-induced writhing reaction; assay: phenylquinone-induced writhing test in mice; format: in vivo; conditions: male NMRI mice, phenylquinone i.p. 10 minutes later; for inhibition in vivo at 10 mg/kg: Mus musculus, iv, 10 min, 10 mg/kg intravenously
Experimental: Analgesic Effect in the Writhing Test in Mice
The analgesic effect was investigated in the phenylquinone-induced writhing test in mice (as modified by I. C. Hendershot and J. Forsaith (1959) J. Pharmacol. Exp. Ther. 125, 237-240). Male NMRI mice weighing 25 to 30 g were used for the test. Groups of 10 animals each received by intraperitoineal application, for each substance dose, 0.3 ml/mouse of a 0.02% aqueous solution of phenylquinone (phenylbenzoquinone, Sigma Company, Deisenhofen; solution prepared with addition of 5% of ethanol and kept in a water bath at 45° C.) 10 minutes after intravenous administration of the test substances. The animals were placed individually in observation cages. The number of pain-induced stretching movements (so-called writhing reactions=straightening of the body together with stretching of the rear extremities) was measured by means of a push-button counter 5 to 20 minutes after administration of the phenylquinone. Animals that had received only physiological saline solution served as controls. All substances were tested in the standard dose of 10 mg/kg. The percentage inhibition (% inhibition) of the writhing reaction produced by a substance was calculated according to the following formula: [formula]

NA transporter = biological target: T1, NA transporter (Rattus norvegicus, UniProt Q63380); assay: synaptosomal noradrenaline uptake inhibition (NA uptake inhibition); format: biochemical; conditions: for NA Uptake Inhibition at 1 μM: 1 μM in the assay, synaptosomes from rat hypothalamus; for inhibition at 1 µM: read-out: NA Uptake Inhibition at 1 μM, 1 μM in the assay, synaptosomes from rat hypothalamus
T1 construct: synaptosomes are isolated fresh from rat brains; from tissue; host or cells: rat hypothalamus synaptosomes (P2 fraction)
Experimental: In order to carry out these in vitro studies, synaptosomes are isolated fresh from rat brains. In each case a so-called “P2” fraction is used, which is prepared according to the protocol of Gray and Whittaker (E. G. Gray and V. P. Whittaker (1962) J. Anat. 76, 79-88).
(in each case N=4, i.e. mean values±SEM from 4 independent series of experiments that were carried out in the form of triple parallel experiments).
as §1

[3] = test system: benzothiazepine binding site of the L-type calcium channel; assay: Diltiazem binding, L calcium channel; design: species or system rat; conditions: 10 μM, percentage inhibition, [3H]-cis-(+)-diltiazem 5 nM, rat cerebral cortex membranes
Experimental: Binding Investigations in the L Calcium Channel
Benzothiazepine Binding Site (Diltiazem Binding)
The biological membrane material was isolated from the rat cerebral cortex. [^3H]-cis-(+)-diltiazem (5 nM in the assay) was used as ligand. The material was incubated for 20 minutes at 25° C. The radioactivity that is measured in the presence of (±)-diltiazem (10^−6 M in the assay) is defined as non-specific binding. After completion of incubation the non-bound fraction of the radioactive ligand is separated by means of a filtration process using Whatman Glasfiber GF/B membranes. The membranes are washed and the radioactivity is then measured using a β-counter. The method is based on the details published by Schoemaker and Langer (H. Schoemaker and S. Z. Langer (1985) Eur. J. Pharmacol. 111, 273-277).
as §1

T1 sequence (Q63380 1-617): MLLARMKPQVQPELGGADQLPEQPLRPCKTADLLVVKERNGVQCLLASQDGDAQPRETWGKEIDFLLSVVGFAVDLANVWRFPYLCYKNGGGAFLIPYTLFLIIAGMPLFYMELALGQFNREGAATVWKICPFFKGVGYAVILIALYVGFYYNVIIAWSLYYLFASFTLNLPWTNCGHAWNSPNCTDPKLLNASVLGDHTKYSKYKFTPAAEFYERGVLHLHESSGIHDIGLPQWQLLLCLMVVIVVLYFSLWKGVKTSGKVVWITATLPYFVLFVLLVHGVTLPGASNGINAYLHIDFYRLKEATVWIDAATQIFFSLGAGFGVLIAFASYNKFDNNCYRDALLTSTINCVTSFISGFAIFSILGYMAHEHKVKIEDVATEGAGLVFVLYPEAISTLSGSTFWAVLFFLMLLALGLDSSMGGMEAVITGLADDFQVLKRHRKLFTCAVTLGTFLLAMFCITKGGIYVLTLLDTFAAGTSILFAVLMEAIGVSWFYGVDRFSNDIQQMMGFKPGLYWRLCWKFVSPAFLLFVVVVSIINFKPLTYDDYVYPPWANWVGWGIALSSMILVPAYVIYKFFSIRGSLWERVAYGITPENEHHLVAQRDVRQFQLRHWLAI

SMILES | BTX Binding at 10 μM ([1]; hydrochloride) [%] | inhibition in vivo at 10 mg/kg [2] [%] | NA Uptake Inhibition at 1 μM (NA transporter; hydrochloride) [%] | Diltiazem Binding at 10 μM ([3]; hydrochloride) [%] | BTX Binding at 10 μM [1] [%] | inhibition at 1 µM (NA transporter) [%] | Diltiazem Binding at 10 μM [3] [%] | % Inhibition of the writhing reaction at 10 mg/kg intravenously [2] [%] | NA Uptake Inhibition at 1 μM (NA transporter) [%]
Cc1ccccc1C(C1CCCCC1(O)c1ccccc1)N(C)C.Cl (stereo not shown) [Example 66, 2-(dimethylamino-o-tolylmethyl)-1-phenylcyclohexanol, hydrochloride] | 89 | 91 | 15 | 65 |  |  |  |  | 
COc1cccc(C(c2ccccc2)(C2CCCCC2(O)Cc2ccccc2)N(C)C)c1.Cl (stereo not shown) [Example 35, 1-benzyl-2-[dimethylaminophenyl-(3-methoxyphenyl)methyl]cyclohexanol, hydrochloride] |  | 81 |  |  | 92 | 100 | 87 |  | 
CN(C)CC1CCCCC1(O)c1ccc(Cl)cc1Cl.Cl (stereo not shown) [Example 43, 1-(2,4-dichlorophenyl)-2-(3-dimethylaminomethyl)-1-cyclohexanol, hydrochloride] |  |  |  |  | 94 |  | 73 | 80 | 14
CN(C)C(c1cccs1)C1CCCCC1(O)Cc1ccc(C(C)(C)C)cc1.Cl (stereo not shown) [Example 82, 1-(4-tert.-butylbenzyl)-2-[dimethylaminothiophen-2-ylmethyl]cyclohexanol, hydrochloride] |  | 100 |  |  | 98 | 0 | 85 |  | 
CN(C)C(c1ccccc1Cl)C1CCCCC1(O)Cc1ccccc1.Cl (stereo not shown) [Example 45, 1-benzyl-2-[(2-chlorophenyl)dimethylaminomethyl]cyclohexanol, hydrochloride] |  | 82 |  |  | 96 | 89 | 67 |  | 
CN(C)C(c1ccccc1)C1CCCCC1(O)C1CCCCC1.Cl (stereo not shown) [Example 48, 2-(dimethylaminophenylmethyl)bicyclohexyl-1-ol, hydrochloride] |  | 94 |  |  | 96 | 29 | 86 |  | 
CN(C)C(c1ccc(Cl)cc1)C1CCCCC1(O)c1ccc(C(F)(F)F)cc1.Cl (stereo not shown) [Example 62, 2-[(4-chlorophenyl)dimethylaminomethyl]-1-(4-trifluoromethylphenyl)cyclohexanol, hydrochloride] |  | 94 |  |  | 93 | 80 | 83 |  | 
CN(C)C(c1ccc(C#N)cc1)C1CCCCC1(O)c1ccc(C(F)(F)F)cc1.Cl (stereo not shown) [Example 65, 4-{dimethylamino-[2-hydroxy-2-(4-trifluoromethylphenyl)cyclohexyl]methyl}benzonitrile, hydrochloride] |  | 76 |  |  | 78 | 0 | 72 |  | 
CN(C)C(c1ccccc1)C1CC(c2ccccc2)CCC1(O)Cc1ccccc1.Cl (stereo not shown) [Example 72, 1-benzyl-2-(dimethylaminophenylmethyl)-4-phenylcyclohexanol, hydrochloride] |  | 89 |  |  | 99 | 64 | 97 |  | 
CN(C)C(c1ccc(Cl)cc1)C1CCCCC1(O)Cc1ccccc1.Cl (stereo not shown) [Example 58, 1-benzyl-2-[(4-chlorophenyl)dimethylaminomethyl]cyclohexanol, hydrochloride] |  | 98 |  |  | 100 | 0 | 80 |  | 
COc1cccc(C(C2CCCCC2(O)c2ccc3c(c2)OCO3)N(C)C)c1.Cl (stereo not shown) [Example 31, 1-benzo[1,3]dioxol-5-yl-2-[dimethylamino-(3-methoxyphenyl)methyl]cyclohexanol, hydrochloride] |  | 76 |  |  | 85 | 43 | 90 |  | 
COc1cccc(C(C2CCCCC2(O)c2cccc(Cl)c2)N(C)C)c1.Cl (stereo not shown) [Example 9] |  |  |  |  | 89 |  | 91 | 73 | 62
CN(C)C(c1ccc(F)cc1)C1CCCCC1(O)Cc1cccc(C(F)(F)F)c1.Cl (stereo not shown) [Example 47, 2-[dimethylamino-(4-fluorophenyl)methyl]-1-(3-trifluoromethylbenzyl)cyclohexanol, hydrochloride] |  | 89 |  |  | 100 | 100 | 84 |  | 
Cl.OC1(Cc2ccccc2)CCCCC1C(c1ccccc1)N1CCCCC1 (stereo not shown) [Example 78, 1-benzyl-2-(phenylpiperidin-1-ylmethyl)cyclohexanol, hydrochloride] |  | 73 |  |  | 96 | 84 | 95 |  | 
CN(C)C(c1cccc(Oc2ccccc2)c1)C1CCCCC1(O)Cc1ccc(C(C)(C)C)cc1.Cl (stereo not shown) [Example 64, 1-(4-tert.-butylbenzyl)-2-[dimethylamino-(3-phenoxyphenyl)methyl]cyclohexanol, hydrochloride] |  | 88 |  |  | 100 | 36 | 87 |  | 
CN(C)C(c1ccccc1)C1CCCCC1(O)Cc1ccccc1Cl.Cl (stereo not shown) [Example 30, 1-(2-chlorobenzyl)-2-(dimethylaminophenylmetlhyl)cyclohexanol, hydrochloride] |  |  |  |  | 96 |  | 98 | 85 | 98
CN(C)C(c1ccc(Cl)c(Cl)c1)C1CCCCC1(O)CCc1ccccc1.Cl (stereo not shown) [Example 40, 2-[(3,4-dichlorophenyl)dimethylaminomethyl]-1-phenethylcyclohexanol, hydrochloride] |  | 72 |  |  | 98 | 58 | 86 |  | 
CN(C)C(c1ccccc1)C1CCCCC1(O)Cc1ccc(F)cc1F.Cl (stereo not shown) [Example 50, 1-(2,4-difluorobenzyl)-2-(dimethylaminophenylmethyl)cyclohexanol, hydrochloride] |  | 85 |  |  | 95 | 100 | 93 |  | 
COC(=O)c1ccc(C2(O)CCCCC2C(c2ccccc2)N(C)C)cc1.Cl (stereo not shown) [Example 71, Methyl-4-[2-(dimethylaminophenylmethyl)-1-hydroxycyclohexyl]benzoate, hydrochloride] |  | 55 |  |  | 81 | 88 | 74 |  | 
